Experimental data as given in patent US20220125839A1, “COMBINATION OF T-CELL THERAPY AND TARGETED THERAPY FOR TREATING THERAPY-RESISTANT MELANOMA WITH MUTATIONS IN THE BRAF GENE” (H. LEE MOFFITT CANCER CENTER AND RESEARCH INSTITUTE, INC., priority 2019, published 2022).

What was measured:
[1] = system: BRAFV600E mutant melanoma; conditions: patients with BRAFV600E mutant melanoma; cited from earlier work
[2] = system: M6PR; experiment: M6PR expression by flow cytometry in different melanoma cell lines treated with dabrafenib; format: cell-based, human; conditions: 16 hr, 1 μM or 5 μM
Experimental: FIGS. 4A and 4B show WM35 cells resistant to PLX4720. […] Cell viability was measured in experimental replicates in MTT test after 2 and 4 days of treatment. Mean and SD are shown. FIG. 4B show the effect of Dabrafenib on the expression of M6PR. Indicated cells were treated with dabrafenib for 16 hr (1 μM or 5 μM) and M6PR expression was evaluated by flow cytometry. Mean and SD are shown. P values were calculated using two-sided Student's t-test; *-p<0.05; ** p<0.01; ***-p<0.001; ****-p<0.0001 from DMSO treated controls.
M6PR expression levels were detected by flow cytometry. Cells were incubated with Aqua dead cell staining kit (Thermo Fischer Scientific; Cat. no. L34957) for 15 min at 4° C., followed by staining with Alexa Fluor 647-conjugated mouse antibody specific for human IGF2R/M6PR (BD Biosciences; Cat. no. 565105; clone no. MEM-238) or its isotype (BD Biosciences; Cat. no. 557732; clone no. MOPC-21) at 4° C. for 20 minutes. Cells were fixed using 1% paraformaldehyde for 20 minutes at 4° C. before running them on LSR14. Data was analyzed by FlowJo software (Tree Star).

[3] = system: lung cancer and lymphoma; conditions: models of lung cancer and lymphoma; cited from earlier work

Structure (SMILES)	clinical responses [1]	expression of M6PR [2]	effect on anti-tumor effect of immunotherapy [3]
CC(C)(C)c1nc(-c2cccc(NS(=O)(=O)c3c(F)cccc3F)c2F)c(-c2ccnc(N)n2)s1 [dabrafenib]	impressive clinical responses	substantial up-regulation of the receptor	–
COc1cccc2c1C(=O)c1c(O)c3c(c(O)c1C2=O)C[C@@](O)(C(=O)CO)C[C@@H]3O[C@H]1C[C@H](N)[C@H](O)[C@H](C)O1 [doxorubicin]	–	–	potentiate the anti-tumor effect of immunotherapy via up-regulation of M6PR on the tumor cell surface
N.N.[Cl][Pt][Cl] [cisplatin]	–	–	potentiate the anti-tumor effect of immunotherapy via up-regulation of M6PR on the tumor cell surface
CC(=O)O[C@H]1C(=O)[C@@]2(C)[C@H]([C@H](OC(=O)c3ccccc3)[C@]3(O)C[C@H](OC(=O)[C@H](O)[C@@H](NC(=O)c4ccccc4)c4ccccc4)C(C)=C1C3(C)C)[C@]1(OC(C)=O)CO[C@@H]1C[C@@H]2O [paclitaxel]	–	–	potentiate the anti-tumor effect of immunotherapy via up-regulation of M6PR on the tumor cell surface
